Read-outs that look alike come from different tables or passages of the source.
Columns and labels:
Assay type in all cases: cell-based, human
SK-MEL-5 = assay: SRB anticancer assay, melanoma; conditions: Homo sapiens, SK-MEL-5, 48 h
SK-OV-3 = assay: SRB anticancer assay, ovarian; conditions: Homo sapiens, SK-OV-3, 48 h
SF-539 = assay: SRB anticancer assay, CNS; parameters: Log10GI50: unit not given here; conditions: for GI50: Homo sapiens, SF-539, 48 h
OVCAR-8 = assay: SRB anticancer assay, ovarian; parameters: Log10GI50: unit not given here; conditions: for GI50: Homo sapiens, OVCAR-8, 48 h
KM12 = assay: SRB anticancer assay, colon; conditions: Homo sapiens, KM12, 48 h
SNB-19 = assay: SRB anticancer assay, CNS; parameters: Log10GI50: unit not given here; conditions: for GI50: Homo sapiens, SNB-19, 48 h
RXF 393 = assay: SRB anticancer assay, renal; parameters: Log10GI50: unit not given here; conditions: for GI50: Homo sapiens, RXF 393, 48 h
BT-549 = assay: SRB anticancer assay, breast; conditions: Homo sapiens, BT-549, 48 h
TK-10 = assay: SRB anticancer assay, renal; conditions: Homo sapiens, TK-10, 48 h
OVCAR-5 = assay: SRB anticancer assay, ovarian; conditions: Homo sapiens, OVCAR-5, 48 h
K-562 = assay: SRB anticancer assay, leukemia; conditions: Homo sapiens, K562; K-562, 48 h
NCI-H522 = assay: SRB anticancer assay, non-small lung; parameters: Log10GI50: unit not given here; conditions: for GI50: Homo sapiens, NCI-H522, 48 h
SK-MEL-2 = assay: SRB anticancer assay, melanoma; conditions: Homo sapiens, SK-MEL-2, 48 h
ACHN = assay: SRB anticancer assay, renal; parameters: Log10GI50: unit not given here; conditions: for GI50: Homo sapiens, 48 h
786-0 = assay: SRB anticancer assay, renal; conditions: for GI50: Homo sapiens, 786-0, 48 h
CNS cancer cell lines = assay: SRB anticancer assay, panel result; conditions: for mean graph midpoint value (MG_MID) of log10 TGI: total inhibition of net cell growth; for CC50 / GI50: Homo sapiens; for CC50: 50% net cell death, read-out: mean graph midpoint value (MG_MID) of Log10 LC50 (converted)
Protocol: (§1) The compounds were evaluated for anticancer activity against sixty human cancer cells derived from nine cancer types (leukemia cell line, non-small-cell lung cell line, colon cell line, CNS cell line, melanoma cell line, ovarian cell line, prostate cell line, renal cancer cell line and breast cancer cell line) as shown in Table 1. For each compound, dose response curves for each cell line were measured at a minimum of five concentrations at 10 fold dilutions. A protocol of 48 h continuous drug exposure was used and a sulforhodamine B (SRB) protein assay was used to estimate cell viability or growth.

[1] = system: Leukemia cancer cell lines; assay: SRB anticancer assay, panel result; conditions: for LC50 / GI50: Homo sapiens; for LC50: 50% net cell death, read-out: mean graph midpoint value (MG_MID) of Log10 LC50 (converted); for mean graph midpoint value (MG_MID) of log10 TGI: total inhibition of net cell growth
Protocol: as §1

UACC-257 = assay: SRB anticancer assay, melanoma; conditions: for GI50: Homo sapiens, UACC-257, 48 h
SF-295 = assay: SRB anticancer assay, CNS; parameters: Log10GI50: unit not given here; conditions: for GI50: Homo sapiens, SF-295, 48 h
SF-268 = assay: SRB anticancer assay, CNS; parameters: Log10GI50: unit not given here; conditions: for GI50: Homo sapiens, SF-268, 48 h
HS 578T = assay: SRB anticancer assay, breast; parameters: Log10GI50: unit not given here
MDA-MB-231/ATCC = assay: SRB anticancer assay, breast; parameters: Log10GI50: unit not given here; conditions: for GI50: Homo sapiens, MDA-MB-231, 48 h, 48 h, read-out: GI50
NCI-H322M = assay: SRB anticancer assay, non-small lung; conditions: Homo sapiens, 48 h
MCF7 = assay: SRB anticancer assay, breast; conditions: Homo sapiens, MCF7, 48 h
SK-MEL-28 = assay: SRB anticancer assay, melanoma; parameters: Log10GI50: unit not given here; conditions: for GI50: Homo sapiens, SK-MEL-28, 48 h
LOX IMVI = assay: SRB anticancer assay, melanoma; parameters: Log10GI50: unit not given here; conditions: for GI50: Homo sapiens, 48 h
UACC-62 = assay: SRB anticancer assay, melanoma; conditions: for GI50: Homo sapiens, UACC-62, 48 h
MALME-3M = assay: SRB anticancer assay, melanoma; parameters: Log10GI50: unit not given here
PC-3 = assay: SRB anticancer assay, prostate; parameters: Log10GI50: unit not given here
DU-145 = assay: SRB anticancer assay, prostate; parameters: Log10GI50: unit not given here
HT29 = assay: SRB anticancer assay, colon; conditions: Homo sapiens, HT-29; HT29, 48 h
[2] = CNS panel, read-out: mean graph midpoint value (MG_MID) of Log10 GI50 (converted)
[3] = six CNS cancer cell lines, exposure at least 48 h, read-out: GI50, range over the panel
[4] = Leukemia panel, read-out: mean graph midpoint value (MG_MID) of Log10 GI50 (converted)
[5] = six leukemia cancer cell lines, exposure at least 48 h, read-out: GI50, range over the panel
[6] = MDA-MB-231/ATCC (row head MDA-MB-)
[7] = row head printed 231/ATCC (second line of MDA-MB-231/ATCC)

Structure (SMILES): COc1cc(OC)cc(-c2cncn2-c2ccc(-c3nc4cc(OC)cc(OC)c4s3)cc2)c1 [Compound 6d, 2-(4-(5-(3,5-Dimethoxyphenyl)-1H-imidazol-1-yl)phenyl)-5,7-dimethoxybenzo[d]thiazole]
- GI50 (SK-MEL-5): 3.29 µM
- GI50 (SK-OV-3): 4.69 µM
- GI50 (SF-539): 5.76 µM
- GI50 (OVCAR-8): 14.5 µM
- GI50 (KM12): 4.52 µM
- GI50 (SNB-19): > 100 µM
- GI50 (RXF 393): 6.58 µM
- GI50 (BT-549): 5.77 µM
- GI50 (TK-10): 16.8 µM
- GI50 (OVCAR-5): > 100 µM
- GI50 (K-562): 3.22 µM
- GI50 (NCI-H522): 2.49 µM
- GI50 (SK-MEL-2): 9.69 µM
- GI50 (ACHN): > 100 µM
- GI50 (786-0): 7.6 µM
- mean graph midpoint value (MG_MID) of log10 TGI (CNS cancer cell lines; CNS panel): −4.19
- CC50 (CNS cancer cell lines; CNS panel): > 100 µM
- GI50 (CNS cancer cell lines; [2]): 7.94 µM
- GI50 (CNS cancer cell lines; [3]): 2.4 to 11.3 µM
- LC50 ([1]; Leukemia panel): > 100 µM
- GI50 [1, 4]: 3.31 µM
- GI50 [1, 5]: 3.22 to 3.3 µM
- mean graph midpoint value (MG_MID) of log10 TGI ([1]; Leukemia panel): >−4.0
- GI50 (UACC-257): > 100 µM
- GI50 (SF-295): 2.4 µM
- GI50 (SF-268): 11.3 µM
- GI50 (HS 578T; Homo sapiens, 48 h): 3.09 µM
- GI50 (MDA-MB-231/ATCC; [6]): 9.01 µM
- GI50 (MDA-MB-231/ATCC; [7]): 5.02 µM
- GI50 (NCI-H322M): > 100 µM
- GI50 (MCF7): 3.82 µM
- GI50 (SK-MEL-28): > 100 µM
- GI50 (LOX IMVI): 5.48 µM
- GI50 (UACC-62): 4.75 µM

Structure (SMILES): COc1cc2nc(-c3ccc(-n4cncc4-c4ccc(N)cc4)cc3)sc2c(OC)c1OC [Compound 7h, 4-(1-(4-(5,6,7-Trimethoxybenzo[d]thiazol-2-yl)phenyl)-1H-imidazol-5-yl)benzenamine]
- GI50 (SK-MEL-5): 2.74 µM
- GI50 (SK-OV-3): 11.7 µM
- GI50 (SF-539): 7.14 µM
- Log10GI50 (SF-539; SF-539, present compounds): −5.15
- GI50 (OVCAR-8): 4.23 µM
- Log10GI50 (OVCAR-8; OVCAR-8, present compounds): −5.37
- GI50 (SNB-19): 12.3 µM
- Log10GI50 (SNB-19; SNB-19, present compounds): −4.91
- GI50 (RXF 393): 4.41 µM
- Log10GI50 (RXF 393; RXF 393, present compounds): −5.36
- GI50 (MALME-3M; Homo sapiens, Malme-3M, 48 h): 0.71 µM
- Log10GI50 (MALME-3M; MALME-3M, present compounds): −6.15
- GI50 (BT-549): 1.59 µM
- GI50 (TK-10): 4.93 µM
- GI50 (OVCAR-5): 34.3 µM
- GI50 (NCI-H522): 2.74 µM
- Log10GI50 (NCI-H522; NCI-H522, present compounds): −5.56
- GI50 (ACHN): 8.56 µM
- Log10GI50 (ACHN; present compounds): −5.07
- Log10GI50 (786-0; 786-0, present compounds): −5.20 log10 M
- GI50 (786-0): 6.26 µM
- mean graph midpoint value (MG_MID) of log10 TGI (CNS cancer cell lines; CNS panel): −4.51
- CC50 (CNS cancer cell lines; CNS panel): 66.1 µM
- GI50 (CNS cancer cell lines; [2]): 5.75 µM
- GI50 (CNS cancer cell lines; [3]): 1.53 to 12.3 µM
- LC50 ([1]; Leukemia panel): > 100 µM
- GI50 [1, 4]: 1.2 µM
- GI50 [1, 5]: 0.989 to 1.4 µM
- mean graph midpoint value (MG_MID) of log10 TGI ([1]; Leukemia panel): >−4.0
- GI50 (UACC-257): 6.4 µM
- Log10GI50 (UACC-257; UACC-257, present compounds): −5.19 log10(M)
- GI50 (SF-295): 1.53 µM
- Log10GI50 (SF-295; SF-295, present compounds): −5.82
- GI50 (SF-268): 12.3 µM
- Log10GI50 (SF-268; SF-268, present compounds): −4.91
- Log10GI50 (HS 578T; present compounds): −5.27
- GI50 (PC-3; Homo sapiens, PC-3, 48 h): 3.02 µM
- Log10GI50 (PC-3; PC-3, present compounds): −5.52
- GI50 (MDA-MB-231/ATCC; [6]): 3.65 µM
- GI50 (MDA-MB-231/ATCC; [7]): 5.36 µM
- Log10GI50 (MDA-MB-231/ATCC; MDA-MB-231/ATCC, present compounds): −5.44
- GI50 (NCI-H322M): 2.07 µM
- GI50 (MCF7): 3.02 µM
- Log10GI50 (DU-145; DU-145, present compounds): −5.04
- GI50 (DU-145; Homo sapiens, DU-145, 48 h): 7.25 µM
- GI50 (HT29): 2.79 µM
- GI50 (SK-MEL-28): > 100 µM
- Log10GI50 (SK-MEL-28; SK-MEL-28, present compounds): >−4.0
- GI50 (LOX IMVI): 3.65 µM
- Log10GI50 (LOX IMVI; present compounds): −5.44
- GI50 (UACC-62): 5.45 µM
- Log10GI50 (UACC-62; UACC-62, present compounds): −5.26 log10 M

Reference: patent publication US9187467B2, “2-phenyl benzothiazole linked imidazole compounds as potential anticancer agents and process for the preparation thereof” (Council of Scientific and Industrial Research, priority 2012, dated 2015)
